Measured values from US12528778B2, “Microbiocidal derivatives” (SYNGENTA CROP PROTECTION AG, priority 2019, dated 2026).

Legend:
[1] = test system: Glomerella lagenarium (Colletotrichum lagenarium); experiment: Glomerella lagenarium (Colletotrichum lagenarium) / liquid culture (anthracnose); type: cell-based; conditions: Colletotrichum orbiculare, PDB liquid culture, 24° C., growth inhibition measured photometrically 3-4 days after application, vs untreated control
Method: (§1) Example B2: Glomerella lagenarium (Colletotrichum lagenarium)/Liquid Culture (Anthracnose) Conidia of the fungus from cryogenic storage are directly mixed into nutrient broth (PDB potato dextrose broth). After placing a (DMSO) solution of test compound into a microtiter plate (96-well format), the nutrient broth containing the fungal spores is added. The test plates are incubated at 24° C. and the inhibition of growth is measured photometrically 3-4 days after application. […] […]-49, and P-50.

[2] = test system: Monographella nivalis (Microdochium nivale); experiment: Monographella nivalis (Microdochium nivale) / liquid culture (foot rot cereals); type: cell-based; conditions: PDB liquid culture, 24° C., growth inhibition determined photometrically 4-5 days after application, vs untreated control
Method: as §1, with “B5: Monographella nivalis (Microdochium nivale)/Liquid” for “B2: Glomerella lagenarium (Colletotrichum lagenarium)/Liquid”, “(Foot Rot Cereals)” for “(Anthracnose)”, “determined” for “measured”, “4-5” for “3-4”

[3] = test system: Magnaporthe grisea (Pyricularia oryzae); experiment: whole plant or invertebrate; type: in vivo; conditions: foliar, read-out: control of Magnaporthe grisea
[4] = test system: Mycosphaerella graminicola (Septoria tritici); experiment: Mycosphaerella graminicola (Septoria tritici) / liquid culture (Septoria blotch); type: cell-based; conditions: Zymoseptoria tritici, PDB liquid culture, 24° C., growth inhibition determined photometrically 4-5 days after application, vs untreated control
Method: Example B12: Mycosphaerella graminicola (Septoria tritici)/Liquid Culture (Septoria Blotch) Conidia of the fungus from cryogenic storage are directly mixed into nutrient broth (PDB potato dextrose broth). After placing a (DMSO) solution of test compound into a microtiter plate (96-well format), the nutrient broth containing the fungal spores is added. The test plates are incubated at 24° C. and the inhibition of growth is determined photometrically 4-5 days after application. […] […]-48, and P-49.

SMILES | inhibition of growth at 20 ppm [1] | inhibition of growth at 20 ppm [2] | pest or weed control at 200 ppm [3] | inhibition of growth at 20 ppm [4]
Cc1ncc(Nc2cc(F)cc(F)c2)nc1C(=O)NC1CCC1(C)C (stereo not drawn) [Compound P-47, 6-(3,5-difluoroanilino)-N-(2,2-dimethylcyclobutyl)-3-methyl-pyrazine-2-carboxamide] | ≥ 80% | ≥ 80% | ≥ 80% | –
COc1ncc(Nc2cnsc2)nc1C(=O)NC1CCc2cc(C(F)(F)F)ccc21 (stereo not drawn) [Compound P-15, 6-(isothiazol-4-ylamino)-3-methoxy-N-[5-(trifluoromethyl)indan-1-yl]pyrazine-2-carboxamide] | ≥ 80% | ≥ 80% | – | ≥ 80%
COc1ncc(Nc2cnsc2)nc1C(=O)NCCc1ccc(OC(F)(F)F)cc1 [Compound P-10] | ≥ 80% | ≥ 80% | – | –
COc1ncc(Nc2cc(F)cc(F)c2)nc1C(=O)NCc1c(Cl)cncc1Cl [Compound P-23, N-[(3.5-dichloro-4-pyridyl)methyl]-6-(3,5-difluoroanilino)-3-methoxy-pyrazine-2-carboxamide] | ≥ 80% | – | ≥ 80% | –
CC1(C)CCC1NC(=O)c1cncc(Nc2cc(F)nc(F)c2)n1 (stereo not drawn) [Compound P-46, 6-[(2,6-difluoro-4-pyridyl)amino]-N-(2,2-dimethylcyclobutyl) pyrazine-2-carboxamide] | ≥ 80% | ≥ 80% | – | ≥ 80%
CC1(NC(=O)c2cncc(Nc3cc(F)nc(F)c3)n2)CCCC1 [Compound P-49, 6-[(2,6-difluoro-4-pyridyl)amino]-N-(1-methylcyclopentyl) pyrazine-2-carboxamide] | ≥ 80% | ≥ 80% | ≥ 80% | ≥ 80%
COc1ncc(NC2CC2)nc1C(=O)NC1CCC1(C)C (stereo not drawn) [Compound P-3, 6-(cyclopropylamino)-N-(2,2-dimethylcyclobutyl)-3-methoxy-pyrazine-2-carboxamide] | ≥ 80% | ≥ 80% | – | –
COc1ncc(Nc2cc(F)cc(F)c2)nc1C(=O)NCC1COc2ccccc21 (stereo not drawn) [Compound P-26, 6-(3,5-difluoroanilino)-N-(2,3-dihydrobenzofuran-3-yimethyl)-3-methoxy-pyrazine-2-carboxamide] | ≥ 80% | – | ≥ 80% | –
COc1ncc(Nc2cnsc2)nc1C(=O)NCC1(C(F)(F)F)CC1 [Compound P-11] | ≥ 80% | ≥ 80% | – | ≥ 80%
COc1ncc(Nc2cc(F)cc(F)c2)nc1C(=O)NC1CCc2ccc(C(F)(F)F)cc21 (stereo not drawn) [Compound P-31, 6-(3,5-difluoroanilino)-3-methoxy-N-[6-(trifluoromethyl)indan-1-yl]pyrazine-2-carboxamide] | ≥ 80% | – | – | ≥ 80%
COc1ncc(Nc2cc(F)cc(F)c2)nc1C(=O)NC1CCc2cc(C(F)(F)F)ccc21 (stereo not drawn) [Compound P-32, 6-(3,5-difluoroanilino)-3-methoxy-N-[5-(trifluoromethyl)indan-1-yl]pyrazine-2-carboxamide] | ≥ 80% | ≥ 80% | – | ≥ 80%
COc1ncc(Nc2cnsc2)nc1C(=O)NC1CCc2ccc(C(F)(F)F)cc21 (stereo not drawn) [Compound P-14, 6-(isothiazol-4-ylamino)-3-methoxy-N-[6-(trifluoromethyl)indan-1-yl]pyrazine-2-carboxamide] | ≥ 80% | ≥ 80% | ≥ 80% | ≥ 80%
COc1ncc(NC2CCC2)nc1C(=O)NC1CCC1(C)C (stereo not drawn) [Compound P-2, 6-(cyclobutylamino)-N-(2,2-dimethylcyclobutyl)-3-methoxy-pyrazine-2-carboxamide] | ≥ 80% | ≥ 80% | – | ≥ 80%
COc1ncc(Nc2cc(F)cc(F)c2)nc1C(=O)NCC1(c2ccc(C(F)(F)F)cn2)CC1 [Compound P-19, 6-(3,5-difluoroanilino)-3-methoxy-N-[[1-[5-(trifluoromethyl)-2-pyridyl]cyclopropyl]methyl]pyrazine-2-carboxamide] | ≥ 80% | ≥ 80% | ≥ 80% | –
COc1ncc(Nc2cc(F)cc(F)c2)nc1C(=O)NC1(c2ccccn2)CC1 [Compound P-7, 6-(3,5-difluoroanilino)-3-methoxy-N-[1-(2-pyridyl)cyclopropyl] pyrazine-2-carboxamide] | – | ≥ 80% | – | –
CCON=C(CNC(=O)c1nc(Nc2cc(F)cc(F)c2)cnc1OC)c1ncc(Cl)cc1Cl [Compound P-17, N-[2-(3,5-dichloro-2-pyridyl)-2-ethoxyimino-ethyl]-6-(3,5-difluoroanilino)-3-methoxy-pyrazine-2-carboxamide] | ≥ 80% | ≥ 80% | – | –
COc1ncc(Nc2cc(F)cc(F)c2)nc1C(=O)NCc1cccc2ccnn12 [Compound P-27] | ≥ 80% | – | – | –
COc1ncc(Nc2cnsc2)nc1C(=O)NCc1cccc2c1OC(F)(F)O2 [Compound P-12, N-[(2,2-difluoro-1,3-benzodioxol-4-yl)methyl]-6-(isothiazol-4-ylamino)-3-methoxy-pyrazine-2-carboxamide] | ≥ 80% | ≥ 80% | – | ≥ 80%
CCON=C(CNC(=O)c1nc(Nc2cc(F)nc(F)c2)cnc1OC)c1ncc(Cl)cc1Cl [Compound P-33, N-[2-(3,5-dichloro-2-pyridyl)-2-ethoxyimino-ethyl]-6-[(2,6-difluoro-4-pyridyl)amino]-3-methoxy-pyrazine-2-carboxamide] | ≥ 80% | – | – | –
COc1ncc(Nc2cnsc2)nc1C(=O)NC1CCC1(C)C (stereo not drawn) [Compound P-42, (isothiazol-4-ylamino)-N-(2,2-dimethylcyclobutyl)-6-3-methoxy-pyrazine-2-carboxamide] | – | ≥ 80% | ≥ 80% | ≥ 80%
COc1ncc(Nc2cc(F)cc(F)c2)nc1C(=O)NC1CCN(c2cccc(OC(F)(F)F)c2)C1=O (stereo not drawn) [Compound P-6, 6-(3,5-difluoroanilino)-3-methoxy-N-[2-oxo-1-[3-(trifluoromethoxy)phenyl]pyrrolidin-3-yl]pyrazine-2-carboxamide] | ≥ 80% | ≥ 80% | ≥ 80% | –
COc1ncc(Nc2cc(F)nc(F)c2)nc1C(=O)NCc1ccc(Oc2ccccc2)cc1 [Compound P-36, 6-[(2,6-difluoro-4-pyridyl)amino]-3-methoxy-N-[(4-phenoxyphenyl)methyl]pyrazine-2-carboxamide] | ≥ 80% | – | ≥ 80% | –
COc1ncc(Nc2cc(F)cc(F)c2)nc1C(=O)NCCc1ccc(OC(F)(F)F)cc1 [Compound P-18, 6-(3,5-difluoroanilino)-3-methoxy-N-[2-[4-(trifluoromethoxy)phenyl]ethyl]pyrazine-2-carboxamide] | ≥ 80% | ≥ 80% | – | –
